Source: the supplement of paper PMC4862054

tested on: HDQ-P1; settings: 72 h
How it was run: (§1)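 Breast cancer cell lines in 20 µl suspension were seeded onto 384-well plates that already held compound dissolved in 5 µl medium and were incubated for 72 h. Viability was measured by adding 2.5 µl CellTiter-Blue for 2 h at 37 °C and reading fluorescence at 560/590 nm. Each plate was normalised to vehicle and a positive kill control and checked by Z'-factor. EC50 was taken from a fitted percent-inhibition dose-response curve, censored at the highest concentration, and rows with a drug sensitivity score of zero were removed.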

SMILES | EC50, CellTiter-Blue viability
CN[C@@H]1C[C@H]2O[C@@](C)([C@@H]1OC)n1c3ccccc3c3c4c(c5c6ccccc6n2c5c31)C(=O)N[C@H]4O [UCN-01] | 59.7 nM
C[C@@H](Oc1cc(-c2cnn(C3CCNCC3)c2)cnc1N)c1c(Cl)ccc(F)c1Cl [Crizotinib] | 6970 nM
C#Cc1cccc(Nc2ncnc3cc(OCCOC)c(OCCOC)cc23)c1 [Erlotinib] | 90.2 nM
Cn1c(Nc2ccc(C(F)(F)F)cc2)nc2cc(Oc3ccnc(-c4ncc(C(F)(F)F)[nH]4)c3)ccc21 [RAF265] | 82.3 nM
COc1cc([C@@H]2c3cc4c(cc3[C@@H](O[C@@H]3O[C@@H]5CO[C@@H](C)O[C@H]5[C@H](O)[C@H]3O)[C@H]3COC(=O)[C@H]23)OCO4)cc(OC)c1O [Etoposide] | 775 nM
Cc1ccc(C(=O)N(CCCN)[C@@H](c2oc3cc(Cl)ccc3c(=O)c2Cc2ccccc2)C(C)C)cc1 | 2.34 nM
CO[C@H]1/C=C\C=C(/C)C(=O)NC2=CC(=O)C(NCCN(C)C)=C(C[C@@H](C)C[C@H](OC)[C@H](O)[C@@H](C)/C=C(\C)[C@@H]1OC(N)=O)C2=O [Alvespimycin] | 22.6 nM
NC(=O)Nc1cc(-c2cccc(F)c2)sc1C(=O)N[C@H]1CCCNC1 [AZD 7762] | 508 nM

tested on: BT-474; settings: 72 h
How it was run: as §1

EC50, CellTiter-Blue viability | SMILES
846 nM | CN[C@@H]1C[C@H]2O[C@@](C)([C@@H]1OC)n1c3ccccc3c3c4c(c5c6ccccc6n2c5c31)C(=O)N[C@H]4O [UCN-01]
3540 nM | C[C@@H](Oc1cc(-c2cnn(C3CCNCC3)c2)cnc1N)c1c(Cl)ccc(F)c1Cl [Crizotinib]
1750 nM | C#Cc1cccc(Nc2ncnc3cc(OCCOC)c(OCCOC)cc23)c1 [Erlotinib]
10800 nM | N[C@@H](CSC(c1ccccc1)(c1ccccc1)c1ccccc1)C(=O)O [S-trityl-L-cysteine]
4.38 nM | Cc1ccc(C(=O)N(CCCN)[C@@H](c2oc3cc(Cl)ccc3c(=O)c2Cc2ccccc2)C(C)C)cc1
22.9 nM | CO[C@H]1/C=C\C=C(/C)C(=O)NC2=CC(=O)C(NCCN(C)C)=C(C[C@@H](C)C[C@H](OC)[C@H](O)[C@@H](C)/C=C(\C)[C@@H]1OC(N)=O)C2=O [Alvespimycin]

tested on: BT-549; settings: 72 h
How it was run: as §1

EC50, CellTiter-Blue viability | SMILES
893 nM | Cc1ccc(C(=O)Nc2ccc(CN3CCN(C)CC3)c(C(F)(F)F)c2)cc1C#Cc1cnc2cccnn12 [Ponatinib]
111 nM | CN[C@@H]1C[C@H]2O[C@@](C)([C@@H]1OC)n1c3ccccc3c3c4c(c5c6ccccc6n2c5c31)C(=O)N[C@H]4O [UCN-01]
7180 nM | C[C@@H](Oc1cc(-c2cnn(C3CCNCC3)c2)cnc1N)c1c(Cl)ccc(F)c1Cl [Crizotinib]
18300 nM | N[C@@H](CSC(c1ccccc1)(c1ccccc1)c1ccccc1)C(=O)O [S-trityl-L-cysteine]
4.14 nM | Cn1c(Nc2ccc(C(F)(F)F)cc2)nc2cc(Oc3ccnc(-c4ncc(C(F)(F)F)[nH]4)c3)ccc21 [RAF265]
224 nM | COc1cc([C@@H]2c3cc4c(cc3[C@@H](O[C@@H]3O[C@@H]5CO[C@@H](C)O[C@H]5[C@H](O)[C@H]3O)[C@H]3COC(=O)[C@H]23)OCO4)cc(OC)c1O [Etoposide]
1.83 nM | Cc1ccc(C(=O)N(CCCN)[C@@H](c2oc3cc(Cl)ccc3c(=O)c2Cc2ccccc2)C(C)C)cc1
23.1 nM | CCN(CCCOc1ccc2c(Nc3cc(CC(=O)Nc4cccc(F)c4)[nH]n3)ncnc2c1)CCOP(=O)(O)O [Barasertib]
6.08 nM | CO[C@H]1/C=C\C=C(/C)C(=O)NC2=CC(=O)C(NCCN(C)C)=C(C[C@@H](C)C[C@H](OC)[C@H](O)[C@@H](C)/C=C(\C)[C@@H]1OC(N)=O)C2=O [Alvespimycin]
670 nM | NC(=O)Nc1cc(-c2cccc(F)c2)sc1C(=O)N[C@H]1CCCNC1 [AZD 7762]

tested on: HCC1143; settings: 72 h
How it was run: as §1

EC50, CellTiter-Blue viability | SMILES
> 10000 nM | Oc1nc(-c2ccc(C(F)(F)F)cc2)nc2c1CSCC2 [XAV-939]
48.5 nM | CN[C@@H]1C[C@H]2O[C@@](C)([C@@H]1OC)n1c3ccccc3c3c4c(c5c6ccccc6n2c5c31)C(=O)N[C@H]4O [UCN-01]
8170 nM | C[C@@H](Oc1cc(-c2cnn(C3CCNCC3)c2)cnc1N)c1c(Cl)ccc(F)c1Cl [Crizotinib]
> 40000 nM | N[C@@H](CSC(c1ccccc1)(c1ccccc1)c1ccccc1)C(=O)O [S-trityl-L-cysteine]
1.43 nM | Cn1c(Nc2ccc(C(F)(F)F)cc2)nc2cc(Oc3ccnc(-c4ncc(C(F)(F)F)[nH]4)c3)ccc21 [RAF265]
1600 nM | COc1cc([C@@H]2c3cc4c(cc3[C@@H](O[C@@H]3O[C@@H]5CO[C@@H](C)O[C@H]5[C@H](O)[C@H]3O)[C@H]3COC(=O)[C@H]23)OCO4)cc(OC)c1O [Etoposide]
2.09 nM | Cc1ccc(C(=O)N(CCCN)[C@@H](c2oc3cc(Cl)ccc3c(=O)c2Cc2ccccc2)C(C)C)cc1
26.2 nM | CO[C@H]1/C=C\C=C(/C)C(=O)NC2=CC(=O)C(NCCN(C)C)=C(C[C@@H](C)C[C@H](OC)[C@H](O)[C@@H](C)/C=C(\C)[C@@H]1OC(N)=O)C2=O [Alvespimycin]
705 nM | NC(=O)Nc1cc(-c2cccc(F)c2)sc1C(=O)N[C@H]1CCCNC1 [AZD 7762]

tested on: HCC1599; settings: 72 h
How it was run: as §1

EC50, CellTiter-Blue viability | SMILES
217 nM | Cc1ccc(C(=O)Nc2ccc(CN3CCN(C)CC3)c(C(F)(F)F)c2)cc1C#Cc1cnc2cccnn12 [Ponatinib]
98.1 nM | CN[C@@H]1C[C@H]2O[C@@](C)([C@@H]1OC)n1c3ccccc3c3c4c(c5c6ccccc6n2c5c31)C(=O)N[C@H]4O [UCN-01]
103 nM | C#Cc1cccc(Nc2ncnc3cc(OCCOC)c(OCCOC)cc23)c1 [Erlotinib]
1700 nM | COc1cc([C@@H]2c3cc4c(cc3[C@@H](O[C@@H]3O[C@@H]5CO[C@@H](C)O[C@H]5[C@H](O)[C@H]3O)[C@H]3COC(=O)[C@H]23)OCO4)cc(OC)c1O [Etoposide]
17.4 nM | CO[C@H]1/C=C\C=C(/C)C(=O)NC2=CC(=O)C(NCCN(C)C)=C(C[C@@H](C)C[C@H](OC)[C@H](O)[C@@H](C)/C=C(\C)[C@@H]1OC(N)=O)C2=O [Alvespimycin]
87.7 nM | NC(=O)Nc1cc(-c2cccc(F)c2)sc1C(=O)N[C@H]1CCCNC1 [AZD 7762]

tested on: Hs578T; settings: 72 h
How it was run: as §1

SMILES | EC50, CellTiter-Blue viability
Cc1ccc(C(=O)Nc2ccc(CN3CCN(C)CC3)c(C(F)(F)F)c2)cc1C#Cc1cnc2cccnn12 [Ponatinib] | > 1000 nM
CN[C@@H]1C[C@H]2O[C@@](C)([C@@H]1OC)n1c3ccccc3c3c4c(c5c6ccccc6n2c5c31)C(=O)N[C@H]4O [UCN-01] | 30.6 nM
C[C@@H](Oc1cc(-c2cnn(C3CCNCC3)c2)cnc1N)c1c(Cl)ccc(F)c1Cl [Crizotinib] | 7690 nM
N[C@@H](CSC(c1ccccc1)(c1ccccc1)c1ccccc1)C(=O)O [S-trityl-L-cysteine] | 1910 nM
Cn1c(Nc2ccc(C(F)(F)F)cc2)nc2cc(Oc3ccnc(-c4ncc(C(F)(F)F)[nH]4)c3)ccc21 [RAF265] | 196 nM
COc1cc([C@@H]2c3cc4c(cc3[C@@H](O[C@@H]3O[C@@H]5CO[C@@H](C)O[C@H]5[C@H](O)[C@H]3O)[C@H]3COC(=O)[C@H]23)OCO4)cc(OC)c1O [Etoposide] | 3040 nM
Cc1ccc(C(=O)N(CCCN)[C@@H](c2oc3cc(Cl)ccc3c(=O)c2Cc2ccccc2)C(C)C)cc1 | 4.05 nM
CCN(CCCOc1ccc2c(Nc3cc(CC(=O)Nc4cccc(F)c4)[nH]n3)ncnc2c1)CCOP(=O)(O)O [Barasertib] | 12.5 nM
CO[C@H]1/C=C\C=C(/C)C(=O)NC2=CC(=O)C(NCCN(C)C)=C(C[C@@H](C)C[C@H](OC)[C@H](O)[C@@H](C)/C=C(\C)[C@@H]1OC(N)=O)C2=O [Alvespimycin] | 5.38 nM
NC(=O)Nc1cc(-c2cccc(F)c2)sc1C(=O)N[C@H]1CCCNC1 [AZD 7762] | 211 nM

tested on: MDA-MB-436; settings: 72 h
How it was run: as §1

EC50, CellTiter-Blue viability | SMILES
695 nM | CN[C@@H]1C[C@H]2O[C@@](C)([C@@H]1OC)n1c3ccccc3c3c4c(c5c6ccccc6n2c5c31)C(=O)N[C@H]4O [UCN-01]
275 nM | C[C@@H](Oc1cc(-c2cnn(C3CCNCC3)c2)cnc1N)c1c(Cl)ccc(F)c1Cl [Crizotinib]
840 nM | C#Cc1cccc(Nc2ncnc3cc(OCCOC)c(OCCOC)cc23)c1 [Erlotinib]
4580 nM | N[C@@H](CSC(c1ccccc1)(c1ccccc1)c1ccccc1)C(=O)O [S-trityl-L-cysteine]
30 nM | Cn1c(Nc2ccc(C(F)(F)F)cc2)nc2cc(Oc3ccnc(-c4ncc(C(F)(F)F)[nH]4)c3)ccc21 [RAF265]
2610 nM | COc1cc([C@@H]2c3cc4c(cc3[C@@H](O[C@@H]3O[C@@H]5CO[C@@H](C)O[C@H]5[C@H](O)[C@H]3O)[C@H]3COC(=O)[C@H]23)OCO4)cc(OC)c1O [Etoposide]
2.55 nM | Cc1ccc(C(=O)N(CCCN)[C@@H](c2oc3cc(Cl)ccc3c(=O)c2Cc2ccccc2)C(C)C)cc1
19.9 nM | CO[C@H]1/C=C\C=C(/C)C(=O)NC2=CC(=O)C(NCCN(C)C)=C(C[C@@H](C)C[C@H](OC)[C@H](O)[C@@H](C)/C=C(\C)[C@@H]1OC(N)=O)C2=O [Alvespimycin]
333 nM | NC(=O)Nc1cc(-c2cccc(F)c2)sc1C(=O)N[C@H]1CCCNC1 [AZD 7762]

tested on: MDA-MB-468; settings: 72 h
How it was run: as §1

EC50, CellTiter-Blue viability | SMILES
105 nM | CN[C@@H]1C[C@H]2O[C@@](C)([C@@H]1OC)n1c3ccccc3c3c4c(c5c6ccccc6n2c5c31)C(=O)N[C@H]4O [UCN-01]
3640 nM | C[C@@H](Oc1cc(-c2cnn(C3CCNCC3)c2)cnc1N)c1c(Cl)ccc(F)c1Cl [Crizotinib]
1510 nM | C#Cc1cccc(Nc2ncnc3cc(OCCOC)c(OCCOC)cc23)c1 [Erlotinib]
1410 nM | N[C@@H](CSC(c1ccccc1)(c1ccccc1)c1ccccc1)C(=O)O [S-trityl-L-cysteine]
1810 nM | COc1cc([C@@H]2c3cc4c(cc3[C@@H](O[C@@H]3O[C@@H]5CO[C@@H](C)O[C@H]5[C@H](O)[C@H]3O)[C@H]3COC(=O)[C@H]23)OCO4)cc(OC)c1O [Etoposide]
1.88 nM | Cc1ccc(C(=O)N(CCCN)[C@@H](c2oc3cc(Cl)ccc3c(=O)c2Cc2ccccc2)C(C)C)cc1
44.5 nM | CCN(CCCOc1ccc2c(Nc3cc(CC(=O)Nc4cccc(F)c4)[nH]n3)ncnc2c1)CCOP(=O)(O)O [Barasertib]
60.5 nM | CO[C@H]1/C=C\C=C(/C)C(=O)NC2=CC(=O)C(NCCN(C)C)=C(C[C@@H](C)C[C@H](OC)[C@H](O)[C@@H](C)/C=C(\C)[C@@H]1OC(N)=O)C2=O [Alvespimycin]
610 nM | NC(=O)Nc1cc(-c2cccc(F)c2)sc1C(=O)N[C@H]1CCCNC1 [AZD 7762]

tested on: MFM-223; settings: 72 h
How it was run: as §1

SMILES | EC50, CellTiter-Blue viability
Cc1ccc(C(=O)Nc2ccc(CN3CCN(C)CC3)c(C(F)(F)F)c2)cc1C#Cc1cnc2cccnn12 [Ponatinib] | 8.43 nM
CN[C@@H]1C[C@H]2O[C@@](C)([C@@H]1OC)n1c3ccccc3c3c4c(c5c6ccccc6n2c5c31)C(=O)N[C@H]4O [UCN-01] | 355 nM
C[C@@H](Oc1cc(-c2cnn(C3CCNCC3)c2)cnc1N)c1c(Cl)ccc(F)c1Cl [Crizotinib] | 3720 nM
CNCc1ccc(-c2[nH]c3cc(F)cc4c3c2CCNC4=O)cc1 [Rucaparib] | 5060 nM
C[C@]12CC[C@@H]3c4ccc(O)cc4C[C@@H](CCCCCCCCC[S+]([O-])CCCC(F)(F)C(F)(F)F)[C@H]3[C@@H]1CC[C@@H]2O (stereo not given in full) [Fulvestrant] | 74.5 nM
Cn1c(Nc2ccc(C(F)(F)F)cc2)nc2cc(Oc3ccnc(-c4ncc(C(F)(F)F)[nH]4)c3)ccc21 [RAF265] | 673 nM
Cc1ccc(C(=O)N(CCCN)[C@@H](c2oc3cc(Cl)ccc3c(=O)c2Cc2ccccc2)C(C)C)cc1 | 3.75 nM
CO[C@H]1/C=C\C=C(/C)C(=O)NC2=CC(=O)C(NCCN(C)C)=C(C[C@@H](C)C[C@H](OC)[C@H](O)[C@@H](C)/C=C(\C)[C@@H]1OC(N)=O)C2=O [Alvespimycin] | 8.78 nM
